Drawing on patent US20260137706A1, “METHODS OF TREATING INFLAMMATORY DISEASES” (INTERLINE THERAPEUTICS, INC., priority 2023, published 2026), this text covers Emax and IC50 for 16 compounds.

The target in assay [1] is T1, binding of His-XIAP(BIR2)-avi fusion protein to GST-RIPK2 fusion protein (RIPK2/XIAP) (Homo sapiens, UniProt O43353).
T1 construct: made in house; host or cells: baculovirus infected Sf9 cells
Description: RIPK2-XIAP binding competition PPI assay (TR-FRET). Particulars: RIPK2/XIAP binding competition PPI assay; for Emax: Amax, read-out: PPI Amax bin; for IC50: read-out: PPI IC50 bin. A digest of the protocol:
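Compounds (in DMSO, 100-fold stock) incubated 120 min at 23 °C with 1 nM GST-RIPK2 (aa 1-310) and 25 nM His-XIAP(BIR2 aa 152-231)-avi, plus anti-His-XL665 and anti-GST-Tb, in pH 7.5 Tris buffer. Read-out: 665/520 nm emission ratio. Normalized to no-inhibitor (0%) and 50 nM GSK583 (−100%); Amax binned A–D.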

The subject of assay [2] is NF-κB pathway (SEAP) in THP1-Dual cells. Briefly: THP-1 Dual cell SEAP assay (L18-MDP stimulated). It counts as cell-based. Particulars: Homo sapiens, THP1-Dual, read-out: NF-κB THP1 IC50 bin. Put shortly:
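THP1-Dual cells (~25,000/well) were preincubated 30 min with serially diluted compounds, then stimulated with 10 ng/mL L18-MDP (final) for 20-24 h at 37 °C. Supernatant SEAP was read with QUANTI-Blue at OD 620-655 nm after 2 h. IC50 came from non-linear fits of % inhibition versus DMSO/L18-MDP controls after media-blank subtraction.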

Assay [3] has as its target T2, GST-RIPK2 fusion protein (human RIPK2, amino acids 1-310) (Homo sapiens, UniProt O43353).
T2 construct: made in house; host or cells: baculovirus infected Sf9 cells
Briefly: RIPK2 binding competition assay (TR-FRET, Tracer 199 displacement). The following applies: 10 nM Tracer 199, 1 nM GST-RIPK2, read-out: RIPK2 IC50. The text has this: The ability of selected compounds of Formula (I) to inhibit the binding of an Alexa647-labelled ATP-competitive kinase inhibitor to a GST-RIPK2 fusion protein was quantified employing the TR-FRET-based RIPK2 binding competition assay as described in the following paragraphs.
Recombinant fusion protein of N-terminal Glutathione-S-Transferase (GST) and a fragment of human RIPK2 (amino acids 1-310 of accession number 043353), expressed in baculovirus infected Sf9 cells, purified via glutathione affinity chromatography, was used as GST-RIPK2 fusion protein. Tracer 199 from Life Technologies (catalogue no. PR9115B) was used as Alexa647-labelled ATP-competitive kinase inhibitor.
For the assay, 50 nL of a 100-fold concentrated solution of each test compound in DMSO was pipetted into either a black low volume 384-well microtiter plate or a black 1536-well microtiter plate (both Greiner Bio-One, Frickenhausen, Germany), 3 μL solution of Tracer 199 (16.7 nM=>final concentration in 5 μL assay volume is 10 nM) in aqueous assay buffer (25 mM Tris/HCl pH 7.5, 10 mM magnesium chloride (MgCl2), 5 mM β-glycerophosphate, 2.5 mM dithiothreitol (DTT), 0.5 mM ethylene glycol-bis(2-aminoethylether)-N,N,N′,N′-tetraacetic acid (EGTA), 0.5 mM sodium ortho-vanadate, 0.01% (w/v) bovine serum albumin (BSA), 0.005% (w/v) Pluronic F-127 (Sigma)) were added. Then the binding competition was started by the addition of 2 μL of a solution of the GST-RIPK2 fusion protein (2.5 nM=>final conc. in the 5 μL assay volume is 1 nM) and of Anti-GST-Tb (1.25 nM=>final conc. in the 5 μL assay volume is 0.5 nM), a Lumi4®—Tb cryptate-conjugated anti-GST antibody from PerkinElmer (catalogue no 61GSTTAH), in assay buffer.
The resulting mixture was incubated 45 min at 22° C. to allow the formation of a complex between the Tracer 199, the fusion protein and Anti-GST-Tb. Subsequently, the amount of this complex was evaluated by measurement of the resonance energy transfer from the Tb-cryptate to the Tracer 199. Therefore, the fluorescence emissions at 620 nm and 665 nm after excitation at 337 nm were measured in a TR-FRET reader, e.g. a Pherastar FS (BMG Labtechnologies, Offenburg, Germany) or a Viewlux (PerkinElmer). The ratio of the emissions at 665 nm and at 620 nm was taken as the measure of the amount of the complex. The data were normalized (assay reaction without inhibitor=0% activity, all other assay components but no GST-RIPK2 fusion protein=−100% activity).
Table A1 below lists IC50 values of selected compounds of Formula (I) measured in the RIPK2 binding competition assay.

T1 sequence (O43353 1-310 limits assumed): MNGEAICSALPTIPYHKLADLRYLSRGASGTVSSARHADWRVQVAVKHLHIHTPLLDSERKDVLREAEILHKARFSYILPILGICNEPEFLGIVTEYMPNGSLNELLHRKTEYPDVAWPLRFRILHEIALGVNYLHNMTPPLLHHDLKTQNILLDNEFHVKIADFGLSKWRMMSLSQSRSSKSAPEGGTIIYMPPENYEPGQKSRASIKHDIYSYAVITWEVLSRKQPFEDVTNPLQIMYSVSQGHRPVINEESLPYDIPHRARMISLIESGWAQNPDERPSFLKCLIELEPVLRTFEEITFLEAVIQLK
T2 sequence (O43353 1-310): as the sequence (O43353 1-310 limits assumed) above

Turning to `COc1cc2ncc(-c3cnn(-c4ccccc4)c3F)n2cc1S(=O)(=O)C(C)(C)C` [Example 88, 6-(tert-butylsulfonyl)-3-(5-fluoro-1-phenyl-1H-pyrazol-4-yl)-7-methoxyimidazo[1,2-a]pyridine], in assay [1], the Emax is < 30%. The IC50 in assay [1] is > 20 nM; in assay [2] it was > 1000 nM; in assay [3] it was > 20 nM.

Take `COc1c(F)cc(-c2cnc3cc(OC[C@@H](C)O)c(S(=O)(=O)C(C)(C)C)cn23)cc1NS(C)(=O)=O` [Example 255, (R)-N-(5-(6-(tert-butylsulfonyl)-7-(2-hydroxypropoxy)imidazo [1,2-a]pyridin-3-yl)-3-fluoro-2-methoxyphenyl) methanesulfonamide]: in assay [1], the Emax is 55 to 80%. Also, the IC50 in assay [1] was < 1 nM; in assay [2], 50 to 250 nM; in assay [3] it was 1 to 2.5 nM.

As to `C[C@@H](CO)COc1cc2ncc(-c3cc(Cl)c(N)nc3F)n2cc1S(=O)(=O)C(C)(C)C` [Example 201, (S)-3-((3-(6-amino-5-chloro-2-fluoropyridin-3-yl)-6-(tert-butylsulfonyl)imidazo [1,2-a]pyridin-7-yl)oxy)-2-methylpropan-1-ol], the Emax in assay [1] is > 80%. The values for the IC50 in assay [1], in assay [2] and in assay [3] were 1 to 2.5 nM, 50 to 250 nM and 1 to 2.5 nM, respectively.

On to `CC(C)(C)S(=O)(=O)c1cn2c(-c3cnc4[nH]ncc4c3)cnc2cc1OCCO` [Example 222, 2-((6-(tert-butylsulfonyl)-3-(1H-pyrazolo[3,4-b]pyridin-5-yl)imidazo[1,2-a]pyridin-7-yl)oxy)ethan-1-ol], for which the Emax in assay [1] was < 30%. Moreover, the IC50 in assay [1] is > 20 nM; in assay [2], > 1000 nM; in assay [3] it was 2.5 to 20 nM.

Regarding `COc1cc2ncc(-c3cnn4ccccc34)n2cc1S(=O)(=O)C(C)(C)C` [Example 112, 6-(tert-butylsulfonyl)-7-methoxy-3-(pyrazolo[1,5-a]pyridin-3-yl)imidazo[1,2-a]pyridine], the Emax in assay [1] was < 30%. Moreover, the IC50 is > 20 nM in assay [1], > 1000 nM in assay [2] and > 20 nM in assay [3].

For the compound `COc1cn2ncc(-c3cc(F)c(N)nc3F)c2nc1N1C(=O)OCC1(C)C` [Example 116, 3-(3-(6-amino-2,5-difluoropyridin-3-yl)-6-methoxypyrazolo[1,5-a]pyrimidin-5-yl)-4,4-dimethyloxazolidin-2-one], in assay [1], the Emax lay in the range of 55 to 80%. The IC50 in assay [1] was > 20 nM; in assay [2] it was > 1000 nM; in assay [3] it was > 20 nM.

`COc1cc2ncc(-c3cccc(NS(=O)(=O)C4CCOC4)c3)n2cc1S(=O)(=O)C(C)(C)C` (stereo not shown) [Example 148, N-(3-(6-(tert-butylsulfonyl)-7-methoxyimidazo[1,2-a]pyridin-3-yl)phenyl)tetrahydrofuran-3-sulfonamide]: the Emax in assay [1] is > 80%. Besides, the IC50 in assay [1] was 2.5 to 20 nM; in assay [2], > 1000 nM; in assay [3] it was 2.5 to 20 nM.

On to `COc1cc2ncc(-c3cc(F)c(N)nc3F)n2cc1S(=O)(=O)C1(C)CCN(C(=O)OC(C)(C)C)CC1` [Example 70, tert-butyl 4-((3-(6-amino-2,5-difluoropyridin-3-yl)-7-methoxyimidazo[1,2-a]pyridin-6-yl)sulfonyl)-4-methylpiperidine-1-carboxylate], for which the Emax in assay [1] was > 80%. Besides, the IC50 was > 20 nM in assay [1], > 1000 nM in assay [2] and > 20 nM in assay [3].

Turning to `COc1cc2ncc(-c3cc(F)c(OC)c(NS(=O)(=O)C4CCC4)c3)n2cc1S(=O)(=O)C(C)(C)C` [Example 145, N-(5-(6-(tert-butylsulfonyl)-7-methoxyimidazo[1,2-a]pyridin-3-yl)-3-fluoro-2-methoxyphenyl)cyclobutanesulfonamide], the Emax in assay [1] is > 80%. Further, the results for the IC50 in assay [1], in assay [2] and in assay [3] were < 1 nM, < 50 nM and < 1 nM, respectively.

For `CC(C)(C)S(=O)(=O)c1cn2c(-c3cc(F)c(N)nc3F)cnc2cc1OCCn1cccn1` [Example 24, 5-(7-(2-(1H-pyrazol-1-yl)ethoxy)-6-(tert-butylsulfonyl)imidazo[1,2-a]pyridin-3-yl)-3,6-difluoropyridin-2-amine], in assay [1], the Emax was > 80%. Besides, the IC50 in assay [1] fell in the range of 2.5 to 20 nM; in assay [2], 50 to 250 nM; in assay [3], 2.5 to 20 nM.

Take `COc1cc2ncc(-c3cccc(NS(=O)(=O)C4CN(C(=O)OC(C)(C)C)C4)c3)n2cc1S(=O)(=O)C(C)(C)C` [Example 155, tert-butyl 3-(N-(3-(6-(tert-butylsulfonyl)-7-methoxyimidazo[1,2-a]pyridin-3-yl)phenyl)sulfamoyl)azetidine-1-carboxylate]: in assay [1], the Emax is > 80%. Further, the IC50 was > 20 nM in assay [1], > 1000 nM in assay [2] and > 20 nM in assay [3].

Consider `CC(C)(C)S(=O)(=O)c1cn2c(-c3ccc(N)nc3F)cnc2cc1OCCO` [Example 249, 2-((3-(6-amino-2-fluoropyridin-3-yl)-6-(tert-butylsulfonyl)imidazo [1,2-a]pyridin-7-yl)oxy)ethan-1-ol], for which, in assay [1], the Emax is > 80%. Also, the IC50 was > 20 nM in assay [1], > 1000 nM in assay [2] and > 20 nM in assay [3].

Regarding `COc1cc2ncc(-c3cnc4c(c3)CCCN4)n2cc1S(=O)(=O)C(C)(C)C` [Example 85, 6-(6-(tert-butylsulfonyl)-7-methoxyimidazo[1,2-a]pyridin-3-yl)-1,2,3,4-tetrahydro-1,8-naphthyridine], the Emax in assay [1] lay in the range of 30 to 55%. Also, the figures for the IC50 in assay [1], in assay [2] and in assay [3] were > 20 nM, > 1000 nM and > 20 nM, respectively.

Consider `Cn1cc(-c2cc3ncc(-c4cc(F)c(N)nc4F)n3cc2S(=O)(=O)C(C)(C)C)cn1` [Example 22, 5-(6-(tert-butylsulfonyl)-7-(1-methyl-1H-pyrazol-4-yl)imidazo[1,2-a]pyridin-3-yl)-3,6-difluoropyridin-2-amine], for which the Emax in assay [1] is > 80%. The IC50 in assay [1] is 2.5 to 20 nM; in assay [2] it was 250 to 1000 nM; in assay [3], 2.5 to 20 nM.

As to `COc1cc2ncc(-c3cc(F)c(OC)c(NS(=O)(=O)c4cnn(C)c4)c3)n2cc1C1(F)CCNCC1` [Example 276, N-(3-fluoro-5-(6-(4-fluoropiperidin-4-yl)-7-methoxyimidazo[1,2-a]pyridin-3-yl)-2-methoxyphenyl)-1-methyl-1H-pyrazole-4-sulfonamide], the Emax in assay [1] was > 80%. Also, the IC50 in assay [1] is < 1 nM; in assay [2], 50 to 250 nM; in assay [3], 1 to 2.5 nM.

`CC(C)(C)S(=O)(=O)c1cn2c(-c3cc(Cl)c(N)nc3F)cnc2cc1CCCO` [Example 257, 3-(3-(6-amino-5-chloro-2-fluoropyridin-3-yl)-6-(tert-butylsulfonyl)imidazo [1,2-a]pyridin-7-yl)propan-1-ol]: in assay [1], the Emax was > 80%. The IC50 in assay [1] was in the range of 2.5 to 20 nM; in assay [2], 250 to 1000 nM; in assay [3], 2.5 to 20 nM.
